From patent publication US7078065B2, “Composition containing asiasari radix extracts for protecting brain cells and improving memory” (priority 2001, dated 2006)

Key:
[1] = system: differentiated PC12 cells; assay: Cell viability (MTT) assay, AMPA-induced damage in differentiated PC12 cells; assay type: cell-based; conditions: AMPA 40 uM
Procedure: (§1) MTT assay is a method to measure mitochondrial redox with calorimeter and it is primarily used to know mitochondrial redox potential or cell viability (Mosmann T., J Immunol. Methods, 1983). PC 12 cells and C6 glial cells were grown in DMEM media with 10% fetal calf serum in 5% humidified CO2 atmosphere at 37° C. PC12 cells were induced to differentiation into neuronal cells by the addition of nerve growth factor (100 ng/ml). Fresh NGF was added every 48 h and experiments were conducted after NGF treatment for 7 days.
(§2) The cells were plated in 96 well plates at a density of 1×10^5 cells/well. Cells were preincubated with AMPA (40 μM) and followed by the addition of AR fractions (10 μg/ml) for 24 hrs. MTT reagent (Sigma, USA) (5 mg/ml) was made in PBS (phosphate buffered saline) and filtered. The cells were then treated with MTT (final concentration, 0.5 mg/ml) and allowed to incubate for 3 hrs at 37° C. Cells containing active mitochondria form dark blue formazan by disintegrating tetrazolium ring. The culture media were removed and the cells were subjected to lysis in the presence of […] of DMSO and […] of Sorensen glycine buffer (0.1M glycine, 0.1M NaCl, pH 10.5). The absorbance was measured with spectrophotometer at 570 nm. The ratio of absorbance of experimental groups to control groups is expressed as % cell viability.

[2] = system: AMPA-induced depolarization in rat cortical slices; assay: Grease-gap recording assay: AMPA-induced depolarization in rat cortical wedges; conditions: AMPA 40 uM for 2 min
Procedure: Cortical wedges from rats were prepared, placed in two-compartment brain bath and experiments were performed as described by Harrison and Simmonds (British J. Pharmacol. 84, 381–391, 1985). ‘Wedges’ of rat cerebral cortex were prepared from the brains of male Wistar rats (200 g). The animal is decapitated and the brain rapidly removed into chilled oxygenated (95% O2/5% CO2) artificial cerebrospinal fluid (ACSF) containing (mM): NaCl 122, NaHCO3 25, KCl 3.1, KH2PO4 0.4, CaCl2 1.3, MgSO4 1.4, D-glucose 10, (pH 7.4). […] coronal slices were taken and they were then placed in room temperature oxygenated ACSF and hemisected with a razor blade. A wedge of tissue was formed such that the dorsal cortical surface containing cerebral cortex and corpus callosum was approximately 1.5 mm wide and ventral surface was approximately 1 mm wide. The wedges were further incubated in ACSF for 2 hrs at room temperature.
Cortical wedges were placed in a two-compartment bath and a greased (high vacuum silicon grease) barrier placed such that a high-resistance seal was formed between the two compartments. Oxygenated ACSF was perfused through the two compartments separately at 2 ml/min for at least 1 hr. […] The DC potential between the two compartments was monitored via Ag/AgCl electrodes. The signal was amplified and analyzed with the aid of McLab software.

[3] = system: C6 glial cells; assay: Cell viability (MTT) assay, AMPA-induced damage in C6 glial cells; assay type: cell-based
Procedure: as §1, §2

Cc1o[nH]c(=O)c1CC(N)C(=O)O (stereo not drawn) [AMPA] was tested, and the “reduction in cell viability as compared to control” value [1] was “approximately 50%”, the increase in depolarization [2] was “up to 0.79 mV” and the “reduction in cell viability as compared to control” value [3] was “approximately 35%”.
